Measurements taken from PMC7922932, “Molecular Dissection of Escherichia coli CpdB: Roles of the N Domain in Catalysis and Phosphate Inhibition, and of the C Domain in Substrate Specificity and Adenosine Inhibition” (International Journal of Molecular Sciences, 2021).
Where two headings read alike, the source gives them in different places.

How the values were obtained:
[1] = target: T1, Mature CpdB (Escherichia coli, UniProt P08331); test: biochemical
Source text: In this approach, inhibitors were used as probes for the relevance of those enzyme sites, irrespective of the physiological character and concentrations of the compounds used.
The procedures and detailed conditions to measure the initial rates of phosphohydrolytic reactions were as earlier described [4]. […] The same assay was used with 2′,3′- or 3′,5′-cyclic nucleotides, CDP-choline and bis-4-NPP except that an excess of alkaline phosphatase was included in the reaction mixture as auxiliary enzyme.
The procedures followed to derive kinetic parameters kcat, KM and Ki from initial rate vs. substrate concentration datasets, either in the presence or the absence of inhibitor, were as described elsewhere [49]. Datasets obtained with different substrates in the absence of inhibitors were used to derive kcat and KM values by adjusting the Michaelis-Menten equation to the experimental points by non-linear regression. […] Each one of these equations was simultaneously adjusted (global fit) by nonlinear regression to the three saturation curves of each inhibition experiment, using the Solver function of Microsoft Excel. During the adjustments, Vmax, KM and Ki were left to fluctuate. […] In each set of experiments, the type of inhibition that gave the best fit was used as the model to estimate Ki values.

[2] = target: T2, His^117Ala-CpdB (H117A-CpdB) (Escherichia coli, UniProt P08331, D305N/H117A/I514V/I97V/M87I/N471D/S472N); test: biochemical
T2 construct: A structural model of mature CpdB (aa 20–647) was built; GST (N, cleaved yes); made in house; host or cells: E. coli BL21
Method: (§1) The two point mutants His^117Ala and Tyr^544Ala of mature CpdB were also tested for the inhibition of the hydrolysis of bis-4-NPP by adenosine.
(§2) Reaction mixtures of 100 µL contained, besides the needed amount of enzyme (i.e., 0.02–0.05 µg/mL of mature CpdB, 2 µg/mL of a CpdB point mutant, or 0.2 µg/mL of CpdB_Ndom), 50 mM Tris [Tris(hydroxymethyl)aminomethane]-HCl pH 7.5 (adjusted at 37 °C), 2 mM MnCl2, 0.1 mg/mL bovine serum albumin, and the indicated concentrations of bis-4-NPP and the compound tested as inhibitor. Incubations performed at 37 °C were stopped by addition of 0.5 mL of 200 mM Tris, pH 8.9, 5 mM EDTA (ethylenediaminetetraacetate), immediately followed by A405 measurement (ε = 18.1 mM^−1 cm^−1). This termination procedure was used instead of the addition of a high NaOH concentration, to avoid the known formation of brown precipitates of air-oxidized Mn^2+ hydroxide. On occasions, when a higher sensitivity was needed, reaction mixtures of 500 µL were implemented and termination was performed with 0.1 mL 1M Tris, pH 8.9, 30 mM EDTA.

[3] = target: T3, Tyr^544Ala-CpdB (Y544A-CpdB) (Escherichia coli, UniProt P08331, D305N/I514V/I97V/M87I/N471D/S472N/Y544A); test: biochemical
T3 construct: A structural model of mature CpdB (aa 20–647) was built; GST (N, cleaved yes); made in house; host or cells: E. coli BL21
Method: as §1, §2

[4] = target: T1, Mature CpdB; test: biochemical; format: biochemical; design: A structural model of mature CpdB (aa 20–647) was built; GST (N, cleaved yes); made in house; host or cells: E. coli BL21
Method: as §2

[5] = target: T4, CpdB_Ndom (Escherichia coli, UniProt P08331, D305N/I97V/M87I); test: biochemical
T4 construct: GST (N, cleaved yes); made in house; host or cells: E. coli BL21
Method: Substrate saturation experiments were run in the absence and the presence of one of these inhibitors at fixed concentrations (Figure 7).
as §2

[6] = target: T4, CpdB_Ndom; format: biochemical; conditions: CpdB_Ndom; 750 µM bis-4-NPP as the substrate; single illustrative experiments
[7] = target: CpdB_Ndom; format: biochemical, Escherichia coli; conditions: CpdB_Ndom versus CpdB; bis-4-NPP as substrate

T1 sequence (P08331 20-647): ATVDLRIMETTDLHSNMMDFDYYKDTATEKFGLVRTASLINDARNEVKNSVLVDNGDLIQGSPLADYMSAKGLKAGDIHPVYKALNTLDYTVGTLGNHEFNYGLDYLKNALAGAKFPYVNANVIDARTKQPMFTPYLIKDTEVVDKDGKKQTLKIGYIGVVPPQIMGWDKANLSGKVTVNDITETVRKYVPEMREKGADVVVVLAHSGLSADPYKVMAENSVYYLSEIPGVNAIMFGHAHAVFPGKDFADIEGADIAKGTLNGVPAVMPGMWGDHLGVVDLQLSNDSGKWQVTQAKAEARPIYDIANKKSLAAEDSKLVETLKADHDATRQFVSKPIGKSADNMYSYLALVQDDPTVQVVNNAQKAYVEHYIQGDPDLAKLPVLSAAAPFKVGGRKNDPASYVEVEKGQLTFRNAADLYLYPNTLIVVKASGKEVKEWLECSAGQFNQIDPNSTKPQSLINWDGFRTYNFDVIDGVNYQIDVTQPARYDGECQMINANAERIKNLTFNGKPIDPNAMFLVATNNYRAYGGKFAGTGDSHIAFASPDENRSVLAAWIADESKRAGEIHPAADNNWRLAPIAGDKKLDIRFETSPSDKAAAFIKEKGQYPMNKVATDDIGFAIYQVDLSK
T4 sequence (P08331 20-354 M87I/I97V/D305N): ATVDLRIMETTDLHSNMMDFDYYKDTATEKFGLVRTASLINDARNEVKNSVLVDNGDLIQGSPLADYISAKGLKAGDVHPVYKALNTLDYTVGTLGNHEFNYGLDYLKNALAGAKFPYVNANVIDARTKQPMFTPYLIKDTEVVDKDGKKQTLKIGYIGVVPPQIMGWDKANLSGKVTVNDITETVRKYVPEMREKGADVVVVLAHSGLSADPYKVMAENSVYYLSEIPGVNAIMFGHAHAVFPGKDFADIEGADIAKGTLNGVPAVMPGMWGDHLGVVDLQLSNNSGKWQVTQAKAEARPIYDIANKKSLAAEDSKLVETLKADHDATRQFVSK
T2 sequence (P08331 20-647 M87I/I97V/H117A/D305N/N471D/S472N/I514V): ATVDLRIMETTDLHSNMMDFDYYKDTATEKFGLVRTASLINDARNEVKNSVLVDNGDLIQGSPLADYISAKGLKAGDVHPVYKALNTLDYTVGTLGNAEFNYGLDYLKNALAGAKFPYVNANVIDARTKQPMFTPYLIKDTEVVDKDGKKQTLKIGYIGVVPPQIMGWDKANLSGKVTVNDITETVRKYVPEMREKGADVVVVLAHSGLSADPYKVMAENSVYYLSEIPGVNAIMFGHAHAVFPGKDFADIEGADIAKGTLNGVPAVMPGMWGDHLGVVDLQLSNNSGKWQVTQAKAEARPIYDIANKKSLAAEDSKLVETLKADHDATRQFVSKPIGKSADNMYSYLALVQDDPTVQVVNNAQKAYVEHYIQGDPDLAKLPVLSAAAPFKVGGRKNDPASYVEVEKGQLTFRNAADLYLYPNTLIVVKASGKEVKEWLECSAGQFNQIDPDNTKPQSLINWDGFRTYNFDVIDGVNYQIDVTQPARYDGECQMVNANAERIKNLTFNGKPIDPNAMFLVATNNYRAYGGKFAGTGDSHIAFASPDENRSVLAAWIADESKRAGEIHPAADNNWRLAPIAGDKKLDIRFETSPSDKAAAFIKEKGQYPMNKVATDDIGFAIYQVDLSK
T3 sequence (P08331 20-647 M87I/I97V/D305N/N471D/S472N/I514V/Y544A): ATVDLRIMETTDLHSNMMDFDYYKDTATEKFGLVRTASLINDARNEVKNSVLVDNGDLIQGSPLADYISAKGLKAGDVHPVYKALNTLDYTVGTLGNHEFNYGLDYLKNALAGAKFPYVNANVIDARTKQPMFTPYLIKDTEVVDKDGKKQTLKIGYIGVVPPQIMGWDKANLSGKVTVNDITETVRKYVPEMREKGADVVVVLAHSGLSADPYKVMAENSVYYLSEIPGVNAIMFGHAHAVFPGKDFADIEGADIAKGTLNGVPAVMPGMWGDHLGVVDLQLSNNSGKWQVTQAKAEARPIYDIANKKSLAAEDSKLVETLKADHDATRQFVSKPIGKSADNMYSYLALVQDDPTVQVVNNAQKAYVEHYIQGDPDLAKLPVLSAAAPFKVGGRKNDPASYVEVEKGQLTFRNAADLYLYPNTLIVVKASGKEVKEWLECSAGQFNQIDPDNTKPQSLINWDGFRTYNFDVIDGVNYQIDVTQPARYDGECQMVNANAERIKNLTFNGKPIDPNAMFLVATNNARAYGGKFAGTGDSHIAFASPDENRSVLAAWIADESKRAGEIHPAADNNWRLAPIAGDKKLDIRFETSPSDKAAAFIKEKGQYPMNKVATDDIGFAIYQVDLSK

| Compound | IC50 [1] | Ki [1] | IC50 [2] | IC50 [3] | IC50 [4] | Ki [4] | IC50 [5] | Ki [5] | IC50 ([4]; mature CpdB, 750 µM bis-4-NPP as the substrate, single illustrative experiments, read-out: IC50) | Ki ([4]; mature CpdB, substrate bis-4-NPP, global fit, mixed partial inhibition (Figure 5), values without SD are single experiments, read-out: Inhibition constant (Ki)) | IC50 [6] | Ki increase in the absence of the C-terminal domain [7] | Ki ([5]; CpdB_Ndom, substrate bis-4-NPP, global fit, complete competitive inhibition (Figure 7), read-out: Inhibition constant (Ki)) |
| --- | --- | --- | --- | --- | --- | --- | --- | --- | --- | --- | --- | --- | --- |
| Nc1ncnc2c1ncn2[C@@H]1O[C@H](CO)[C@@H](O)[C@H]1O [Adenosine, adenosine] | 3250 µM | 41 ± 17 µM | 2000 µM | ~30000 µM | 870 µM | 160 µM | > 10000 µM | 48000 µM |  |  |  |  |  |
| phosphate |  |  |  |  |  |  |  |  | 9000 µM | 1380 ± 340 µM | 1700 µM | did not change | 1060 ± 210 µM |
